This passage reports activity coefficient results from the NIST ThermoML archive (doi:10.1016/j.jct.2012.09.017).

± gives the expanded uncertainty stated by the source.

The series in a line: activity coefficient (dimensionless); of the first substance listed, at infinite dilution; xn = mol fraction of the nth substance listed. As to conditions: 101 kPa, Liquid, Chromatography, x1 = 0.

For `CC(C)OC(C)C` [diisopropyl ether] + CCCC[N+]1(C)CCCC1.O=C1O[B-]2(OC1=O)OC(=O)C(=O)O2, the activity coefficient was 18.4 ± 1 (333.15 K); 17 ± 0.9 (343.15 K); 16 ± 0.8 (353.15 K); 15.1 ± 0.8 (363.15 K); 14.4 ± 0.7 (373.15 K).

For `C[N+](=O)[O-]` [nitromethane] + CCCC[N+]1(C)CCCC1.O=C1O[B-]2(OC1=O)OC(=O)C(=O)O2, the activity coefficient (333.15 K) turned out to be 0.416 ± 0.029; the activity coefficient (343.15 K) came out at 0.423 ± 0.029; the activity coefficient (353.15 K) turned out to be 0.43 ± 0.029; the activity coefficient (363.15 K) is 0.436 ± 0.029; the activity coefficient (373.15 K) came to 0.441 ± 0.029.

For `Cc1ccccc1` [toluene] + CCCC[N+]1(C)CCCC1.O=C1O[B-]2(OC1=O)OC(=O)C(=O)O2, the activity coefficient runs as follows: (333.15 K) 2.57 ± 0.13; (343.15 K) 2.52 ± 0.13; (353.15 K) 2.47 ± 0.13; (363.15 K) 2.43 ± 0.12; (373.15 K) 2.4 ± 0.12.

On to `CCC(C)=O` [butanone] + CCCC[N+]1(C)CCCC1.O=C1O[B-]2(OC1=O)OC(=O)C(=O)O2, for which the activity coefficient runs as follows: (333.15 K) 1.13 ± 0.05; (343.15 K) 1.12 ± 0.05; (353.15 K) 1.11 ± 0.05; (363.15 K) 1.11 ± 0.05; (373.15 K) 1.1 ± 0.05.

For the molecule `C[N+](=O)[O-]` [nitromethane] + CCCC[N+]1(C)CCCC1.N#C[B-](C#N)(C#N)C#N, the activity coefficient came to 0.427 ± 0.029 (318.15 K); 0.427 ± 0.029 (323.15 K); 0.429 ± 0.029 (333.15 K); 0.431 ± 0.029 (343.15 K); 0.433 ± 0.029 (353.15 K).

Turning to `ClC(Cl)Cl` [trichloromethane] + CCCC[N+]1(C)CCCC1.N#C[B-](C#N)(C#N)C#N, the activity coefficient is, setting by setting: (318.15 K) 0.609 ± 0.033; (323.15 K) 0.623 ± 0.033; (333.15 K) 0.654 ± 0.034; (343.15 K) 0.683 ± 0.034; (353.15 K) 0.711 ± 0.035.

In the case of `CC#N` [acetonitrile] + CCCC[N+]1(C)CCCC1.O=C1O[B-]2(OC1=O)OC(=O)C(=O)O2, the activity coefficient by setting is: (333.15 K) 0.509 ± 0.031; (343.15 K) 0.512 ± 0.031; (353.15 K) 0.514 ± 0.031; (363.15 K) 0.516 ± 0.031; (373.15 K) 0.517 ± 0.031.

Turning to `C=CCCCCCC` [oct-1-ene] + CCCC[N+]1(C)CCCC1.N#C[B-](C#N)(C#N)C#N, the activity coefficient was determined as 15.8 ± 0.8 (318.15 K); 15.4 ± 0.8 (323.15 K); 14.7 ± 0.8 (333.15 K); 14 ± 0.7 (343.15 K); 13.4 ± 0.7 (353.15 K).

With `ClC(Cl)(Cl)Cl` [tetrachloromethane] + CCCC[N+]1(C)CCCC1.O=C1O[B-]2(OC1=O)OC(=O)C(=O)O2, the activity coefficient worked out at 4.23 ± 0.22 (333.15 K); 4.14 ± 0.21 (343.15 K); 4.07 ± 0.21 (353.15 K); 4 ± 0.21 (363.15 K); 3.95 ± 0.2 (373.15 K).

As for `COC(C)=O` [methyl ethanoate] + CCCC[N+]1(C)CCCC1.N#C[B-](C#N)(C#N)C#N, the activity coefficient runs as follows: (318.15 K) 0.671 ± 0.034; (323.15 K) 0.678 ± 0.034; (333.15 K) 0.693 ± 0.035; (343.15 K) 0.708 ± 0.035; (353.15 K) 0.724 ± 0.036.

For `c1ccsc1` [thiophene] + CCCC[N+]1(C)CCCC1.O=C1O[B-]2(OC1=O)OC(=O)C(=O)O2, the activity coefficient came out at 1.13 ± 0.05 (333.15 K); 1.12 ± 0.05 (343.15 K); 1.12 ± 0.05 (353.15 K); 1.13 ± 0.05 (363.15 K); 1.13 ± 0.05 (373.15 K).

As for `CCOC(C)=O` [ethyl acetate] + CCCC[N+]1(C)CCCC1.O=C1O[B-]2(OC1=O)OC(=O)C(=O)O2, the activity coefficient runs as follows: (333.15 K) 1.75 ± 0.09; (343.15 K) 1.74 ± 0.09; (353.15 K) 1.74 ± 0.09; (363.15 K) 1.73 ± 0.09; (373.15 K) 1.73 ± 0.09.

`COC(C)(C)C` [2-methoxy-2-methylpropane] + CCCC[N+]1(C)CCCC1.N#C[B-](C#N)(C#N)C#N: the activity coefficient reads like this: (318.15 K) 2.39 ± 0.12; (323.15 K) 2.41 ± 0.12; (333.15 K) 2.45 ± 0.13; (343.15 K) 2.48 ± 0.13; (353.15 K) 2.52 ± 0.13.

For `COCCOC` [1,2-dimethoxyethane] + CCCC[N+]1(C)CCCC1.N#C[B-](C#N)(C#N)C#N, the activity coefficient was found to be 0.506 ± 0.031 (318.15 K); 0.524 ± 0.031 (323.15 K); 0.56 ± 0.032 (333.15 K); 0.594 ± 0.032 (343.15 K); 0.628 ± 0.033 (353.15 K).

`c1ccsc1` [thiophene] + CCCC[N+]1(C)CCCC1.N#C[B-](C#N)(C#N)C#N: the activity coefficient (318.15 K) was found to be 0.681 ± 0.034; the activity coefficient (323.15 K) is 0.688 ± 0.035; the activity coefficient (333.15 K) was found to be 0.703 ± 0.035; the activity coefficient (343.15 K) is 0.718 ± 0.035; the activity coefficient (353.15 K) was determined as 0.733 ± 0.036.

In the case of `CC#N` [acetonitrile] + CCCC[N+]1(C)CCCC1.N#C[B-](C#N)(C#N)C#N, the activity coefficient runs as follows: (318.15 K) 0.425 ± 0.029; (323.15 K) 0.426 ± 0.029; (333.15 K) 0.427 ± 0.029; (343.15 K) 0.429 ± 0.029; (353.15 K) 0.43 ± 0.029.

With `CC(C)O` [propan-2-ol] + CCCC[N+]1(C)CCCC1.N#C[B-](C#N)(C#N)C#N, the activity coefficient amounted to 1.35 ± 0.06 (333.15 K), 1.25 ± 0.06 (343.15 K) and 1.16 ± 0.05 (353.15 K).

As to `CCCCCCC` [heptane] + CCCC[N+]1(C)CCCC1.N#C[B-](C#N)(C#N)C#N, the activity coefficient (318.15 K) is 23.2 ± 1.2; the activity coefficient (323.15 K) was found to be 22.4 ± 1.2; the activity coefficient (333.15 K) worked out at 20.9 ± 1.1; the activity coefficient (343.15 K) was 19.7 ± 1; the activity coefficient (353.15 K) amounted to 18.5 ± 1.

Consider `CCCCCCCC` [octane] + CCCC[N+]1(C)CCCC1.O=C1O[B-]2(OC1=O)OC(=O)C(=O)O2, for which the activity coefficient (333.15 K) turned out to be 88.8 ± 4.6; the activity coefficient (343.15 K) was determined as 77.7 ± 4; the activity coefficient (353.15 K) is 69.3 ± 3.6; the activity coefficient (363.15 K) came out at 61.9 ± 3.2; the activity coefficient (373.15 K) turned out to be 56.1 ± 2.9.

As to `CC(C)=O` [acetone] + CCCC[N+]1(C)CCCC1.N#C[B-](C#N)(C#N)C#N, the activity coefficient (318.15 K) is 0.445 ± 0.03; the activity coefficient (323.15 K) came to 0.45 ± 0.03; the activity coefficient (333.15 K) was determined as 0.461 ± 0.03; the activity coefficient (343.15 K) is 0.471 ± 0.03; the activity coefficient (353.15 K) was found to be 0.481 ± 0.03.

On to `CCO` [ethanol] + CCCC[N+]1(C)CCCC1.N#C[B-](C#N)(C#N)C#N, for which the activity coefficient is, setting by setting: (318.15 K) 1.32 ± 0.06; (323.15 K) 1.27 ± 0.06; (333.15 K) 1.17 ± 0.05; (343.15 K) 1.09 ± 0.05; (353.15 K) 1.02 ± 0.05.

As for `C1CCOC1` [tetrahydrofuran] + CCCC[N+]1(C)CCCC1.O=C1O[B-]2(OC1=O)OC(=O)C(=O)O2, the activity coefficient runs as follows: (333.15 K) 1.13 ± 0.05; (343.15 K) 1.14 ± 0.05; (353.15 K) 1.15 ± 0.05; (363.15 K) 1.15 ± 0.05; (373.15 K) 1.16 ± 0.05.

As to `CCC1CCCCC1` [ethylcyclohexane] + CCCC[N+]1(C)CCCC1.O=C1O[B-]2(OC1=O)OC(=O)C(=O)O2, the activity coefficient was determined as 41.8 ± 2.2 (333.15 K); 36.9 ± 1.9 (343.15 K); 33 ± 1.7 (353.15 K); 29.7 ± 1.5 (363.15 K); 27 ± 1.4 (373.15 K).
